Data from the supplement of paper PMC10307832.

Tests used:
Experiment in all cases: relative viability (nuclei count vs DMSO), 5 days (fraction); higher = more cells survive
[1] = compound: CC1=CC=C(C=C1)C(=O)CN2C3=C(CCCC3)SC2=N [Pifithrin_alpha] + Cc1nc(NC(=O)N2CCC[C@H]2C(N)=O)sc1-c1ccnc(C(C)(C)C(F)(F)F)c1 [Alpelisib] (partner 2 µM)
How it was run: (§1)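 Lung cancer cell lines were pin-tool dosed in 1536-well plates on the day after seeding, with either a lone drug or a fixed anchor-drug dose plus five library-drug doses (not always all listed) in √10 steps. Nuclei were counted on 4× images after 5 days. Relative viability is the ratio of treated-well to vehicle-well nuclei counts, with each value a median of duplicate plates.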

[2] = compound: CC1=CC=C(C=C1)C(=O)CN2C3=C(CCCC3)SC2=N [Pifithrin_alpha] + O=C(c1cc(Cc2n[nH]c(=O)c3ccccc23)ccc1F)N1CCN(C(=O)C2CC2)CC1 [Olaparib] (partner 8 µM)
How it was run: as §1

[3] = compound: CNC(=O)c1ccccc1Sc1ccc2c(/C=C/c3ccccn3)n[nH]c2c1 [Axitinib] + CC(=O)Nc1cccc(-n2c(=O)n(C3CC3)c(=O)c3c(Nc4ccc(I)cc4F)n(C)c(=O)c(C)c32)c1 [Trametinib] (partner 0.02 µM)
How it was run: as §1

[4] = compound: CNC(=O)c1ccccc1Sc1ccc2c(/C=C/c3ccccn3)n[nH]c2c1 [Axitinib] + CS(=O)(=O)CCNCc1ccc(-c2ccc3ncnc(Nc4ccc(OCc5cccc(F)c5)c(Cl)c4)c3c2)o1 [Lapatinib] (partner 2 µM)
How it was run: as §1

| Cell Line | relative viability ([1]; first compound 1 µM) | relative viability ([1]; first compound 3.162 µM) | relative viability ([1]; first compound 10 µM) | relative viability ([1]; first compound 31.62 µM) | relative viability ([1]; first compound 100 µM) | relative viability ([2]; first compound 1 µM) | relative viability ([2]; first compound 3.162 µM) | relative viability ([2]; first compound 10 µM) | relative viability ([2]; first compound 31.62 µM) | relative viability ([2]; first compound 100 µM) | relative viability ([3]; first compound 0.005 µM) | relative viability ([3]; first compound 0.01581 µM) | relative viability ([3]; first compound 0.05 µM) | relative viability ([3]; first compound 0.1581 µM) | relative viability ([3]; first compound 0.5 µM) | relative viability ([4]; first compound 0.005 µM) | relative viability ([4]; first compound 0.01581 µM) | relative viability ([4]; first compound 0.05 µM) | relative viability ([4]; first compound 0.1581 µM) | relative viability ([4]; first compound 0.5 µM) |
| --- | --- | --- | --- | --- | --- | --- | --- | --- | --- | --- | --- | --- | --- | --- | --- | --- | --- | --- | --- | --- |
| NCI-H838 | 0.909 | 0.834 | 0.812 | 0.694 | 0.733 | 0.723 | 0.505 | 0.469 | 0.363 | 0.534 | 0.565 | 0.486 | 0.584 | 0.52 | 0.572 | 1.29 | 0.853 | 1.11 | 1.01 | 1.03 |
| NCI-H1355 | 0.732 | 0.587 | 0.559 | 0.489 | 0.591 | 0.653 | 0.52 | 0.413 | 0.442 | 0.345 | 0.409 | 0.423 | 0.397 | 0.417 | 0.493 | 0.976 | 1.08 | 0.994 | 1 | 0.893 |
| NCI-H1395 | – | 1.06 | 1.13 | 0.55 | 0.958 | – | 0.443 | 0.442 | – | 0.432 | 1 | 0.789 | 0.941 | 0.911 | 1.02 | 1.31 | 0.887 | 1.12 | 0.792 | 0.922 |
| NCI-H1437 | 1.12 | 1.01 | 0.933 | 0.749 | 0.989 | 0.681 | 0.604 | 0.521 | 0.383 | 0.277 | 0.634 | 0.488 | 0.557 | 0.554 | 0.519 | 0.851 | 0.743 | 0.91 | 0.733 | 0.926 |
| NCI-H1651 | 0.884 | 0.933 | 0.908 | 0.685 | 0.989 | 0.184 | 0.191 | 0.173 | 0.143 | 0.194 | 0.9 | 0.84 | 0.744 | 0.797 | 0.826 | 0.89 | 0.706 | 0.929 | 0.713 | 0.942 |
| NCI-H1666 | 0.771 | 0.577 | 0.527 | 0.479 | 0.352 | 0.72 | 0.673 | 0.657 | 0.641 | 0.648 | 0.904 | 0.868 | 0.863 | 0.847 | 0.873 | 0.767 | 0.741 | 0.608 | 0.62 | 0.946 |
| NCI-H1734 | 0.75 | 0.699 | 0.638 | 0.576 | 0.682 | 0.588 | 0.502 | 0.529 | 0.328 | 0.575 | 0.676 | 0.549 | 0.608 | 0.686 | 0.669 | 1.03 | 1.07 | 1.15 | 1.02 | 0.954 |
| NCI-H1755 | 0.99 | 0.93 | 0.942 | 0.75 | 1.02 | 0.789 | 0.747 | 0.734 | 0.544 | 0.73 | 0.806 | 0.764 | 0.786 | 0.822 | 0.789 | 1.06 | 0.998 | 1.06 | 1.04 | 0.99 |
| NCI-H1792 | 0.688 | 0.67 | 0.485 | 0.469 | 0.657 | 0.469 | 0.348 | 0.272 | – | 0.255 | 0.618 | 0.363 | 0.499 | 0.494 | 0.498 | 0.921 | 0.834 | 1.01 | 0.876 | 0.653 |
| NCI-H1793 | 0.752 | 0.68 | 0.839 | 0.73 | 0.538 | 1.01 | 0.757 | 0.798 | 0.365 | 0.649 | 0.382 | 0.374 | 0.469 | 0.408 | 0.447 | 0.768 | 0.609 | 1.17 | 0.571 | 0.526 |
| NCI-H1915 | 0.979 | 1.11 | 1.05 | – | 1.12 | 0.245 | 0.267 | 0.249 | – | 0.276 | 0.34 | 0.299 | 0.312 | 0.298 | 0.33 | 0.994 | 0.99 | 0.994 | 0.922 | 1 |
| NCI-H1944 | 0.866 | 0.762 | 0.72 | – | 0.75 | 0.378 | 0.337 | 0.344 | 0.25 | 0.28 | 0.562 | 0.388 | 0.451 | 0.39 | 0.434 | 0.86 | 0.802 | 0.907 | 0.827 | 0.68 |
| NCI-H1975 | 0.58 | 0.445 | 0.385 | 0.346 | 0.299 | 0.676 | 0.437 | 0.374 | 0.467 | 0.354 | 0.44 | 0.361 | 0.325 | 0.348 | 0.328 | 1.02 | 0.841 | 0.899 | 0.871 | 0.953 |
| NCI-H1993 | – | 0.692 | 0.757 | 0.568 | 0.607 | 1.06 | 1.11 | 0.779 | 0.697 | 0.866 | 0.433 | 0.373 | 0.535 | 0.503 | 0.506 | 0.952 | 0.971 | 0.841 | 0.735 | 0.731 |
| NCI-H2009 | 1.25 | 1.11 | 1.1 | 0.835 | 0.827 | 0.701 | 0.903 | 0.594 | 0.286 | 0.614 | 0.279 | 0.252 | 0.304 | 0.245 | 0.254 | 0.92 | 1.05 | 0.9 | 1.02 | 0.9 |
| NCI-H2023 | 0.589 | 0.396 | 0.454 | 0.289 | 0.367 | 0.514 | 0.455 | 0.318 | 0.301 | 0.244 | 0.634 | 0.483 | 0.489 | 0.439 | 0.57 | 0.752 | 0.924 | 1.03 | 0.775 | 0.759 |
| NCI-H2085 | 0.907 | 0.972 | 0.849 | 0.706 | 0.808 | 0.807 | 0.778 | 0.796 | 0.523 | 0.685 | 0.561 | 0.496 | 0.56 | 0.546 | 0.548 | 0.803 | 0.778 | 0.798 | 0.755 | 0.684 |
| NCI-H2087 | 1.05 | 1.04 | 0.862 | 0.671 | 0.884 | 0.617 | 0.614 | 0.524 | 0.236 | 0.469 | 0.206 | 0.182 | 0.196 | 0.21 | 0.242 | 1 | 1.26 | 0.947 | 0.864 | 1.2 |
| NCI-H2126 | 0.714 | 0.714 | 0.685 | 0.623 | 0.655 | 0.91 | 1.01 | 0.924 | 0.691 | 0.927 | 0.536 | 0.612 | 0.578 | 0.603 | 0.545 | 0.765 | 0.745 | 0.771 | 0.71 | 0.729 |
| NCI-H2170 | 0.799 | 0.821 | 0.756 | 0.537 | 0.744 | 0.657 | 0.593 | 0.541 | 0.309 | 0.551 | 0.925 | 0.926 | 0.875 | 0.917 | 1.08 | 0.269 | 0.257 | 0.277 | 0.256 | 0.257 |
| NCI-H2228 | 0.697 | 0.613 | 0.566 | 0.531 | 0.465 | 0.681 | 0.634 | 0.605 | 0.647 | 0.549 | 0.683 | 0.515 | 0.561 | 0.478 | 0.509 | 1.28 | 0.959 | 1.09 | 1.29 | 1.39 |
| NCI-H2347 | 0.952 | 0.993 | 0.991 | 0.682 | 1.1 | 0.603 | 0.573 | 0.587 | 0.541 | 0.547 | 0.257 | 0.292 | 0.427 | 0.279 | 0.318 | 0.979 | 0.971 | 0.966 | 1.04 | 0.922 |
| NCI-H2405 | – | 0.723 | 0.718 | 0.675 | 0.665 | – | 0.775 | 0.725 | 0.51 | 0.644 | 0.635 | 0.56 | 0.513 | 0.594 | 0.576 | 1.09 | 1.06 | 1.34 | 1.07 | 1.02 |
| NCI-H3122 | 0.859 | 0.864 | 0.912 | 0.812 | 0.917 | 0.635 | 0.48 | 0.511 | 0.291 | 0.389 | 0.217 | 0.212 | 0.255 | 0.217 | 0.267 | 1.03 | 0.977 | 1.04 | 1.04 | 1.13 |
| PC-3 [JPC-3] | 0.953 | 0.945 | 0.975 | 0.884 | 0.882 | – | 1.11 | – | 0.564 | 0.764 | 0.756 | – | 0.626 | 0.762 | 0.741 | 0.483 | – | 0.453 | 0.445 | 0.447 |
| PC-14 | 0.952 | 0.953 | 0.975 | 0.771 | 0.848 | 0.253 | 0.319 | 0.218 | 0.188 | 0.111 | 0.763 | 0.789 | 0.879 | 0.759 | 1.04 | 0.294 | 0.288 | 0.402 | 0.278 | 0.332 |
| RERF-LC-KJ | 0.983 | 0.791 | 0.807 | 0.707 | 0.682 | 0.779 | 0.4 | 0.215 | 0.178 | 0.175 | 0.952 | 0.91 | 0.875 | 0.833 | 0.966 | 0.865 | 0.829 | 0.824 | 0.809 | 0.932 |
